Data set [1] has as its system DBA/1 male mice. Briefly: In vivo collagen-induced arthritis (CIA) assay. The arrangement: species or system mouse. On the procedure: In Vivo Collagen-Induced Arthritis (CIA) Assay:
DBA/1 male mice were immunized to induce arthritis by a collagen injection containing complete Freund's adjuvant (CFA) in the base of the tail (day 0) and a booster shot in the flank (day 21). Mice were followed for arthritis development until day 36. Administration by gavage of the tested compound and control substances began on day 22 and was carried out on a daily basis (6 times per week).
Onset of arthritis was evaluated by an arthritis clinical score.

The test system of data set [2] is IL12/23 p40 mRNA. Briefly: In vitro IL12/23 p40 mRNA expression assay. The data set is classed as cell-based, mouse. To be noted: CD11c+ dendritic cells, 20 μg/ml, 10 μg/ml peptidoglycan, 2-4 hours following administration. On the procedure:
In Vitro IL12/23 p40 mRNA Expression Assay:
Bone marrow-derived cell cultures were prepared as described hereinabove. On days 5-6 post culturing, the cell cultures were enriched for CD11c+ dendritic cells (>90%) with mouse CD11c microbeads over MS or LS columns (Miltenyi Biotech). CD11c+ dendritic cells were stimulated for 1, 2 and 3 hours with 10 μg/ml peptidoglycan alone or in the presence of 20 μg/ml of the tested compound added 1 hour before activation. RNA was extracted from cells using RNeasy mini kit (Qiagen, Valencia, Calif.). For cDNA preparation, 1 μg of RNA was combined with Oligo dT for 10 minutes at 70° C., 1st strand buffer. Dithiothreitol and dNTP and super-script reverse transcriptase (Invitrogen, Carlsbad, Calif.) were added for 50 minutes at 42° C. and the reaction was ended by incubation for an additional 15 minutes at 70° C. All real time PCR reactions were performed using LightCycler Taqman master (Roche Diagnostics, Mannheim, Germany) and run on the LightCycler machine (Roche). Ready sets of probe with primers were used for IL12/23 p40 and GAPDH assays (Applied Biosystems, assays #Mm01288992_m1 and Mm99999915_g1, respectively) with the latter served to normalize RNA levels. 20 μg/ml CI-201 and phosphatidylcholine (PC) were used as positive and negative controls respectively.

Data set [3] has as its system C57BL/6 mice. Kind of data set: In vivo MOG-induced experimental autoimmune encephalomyelitis (EAE) assay. The arrangement: species or system mouse. The note with it: 4 mg/kg orally, 5 consecutive days starting 5 days before immunization. Here is the method:
In Vivo Myelin Oligodendrocyte Glycoprotein (MOG)-Induced Experimental Autoimmune Encephalomyelitis (EAE) Assay:
C57BL/6 mice were orally administered with the indicated amount of the tested compound in a final volume of 200 μl for 5 consecutive days starting 5 days before immunization.
For EAE induction, mice were immunized subcutaneously with an emulsion containing 1.5 mg/ml MOG peptide 35-55 ([…]) and 2.5 mg/ml CFA (complete Freund's adjuvant), 100 μl emulsion being injected into each flank. Pertussis toxin (500 ng in 500 μl PBS) was administered intraperitoneally immediately and 48 hours after the immunization.
Onset of EAE was evaluated by a mean clinical score.

Data set [4] has as its system IL12/23 p40. Briefly: In vitro IL12/23p40 production assay. The data set is classed as cell-based, mouse. To be noted: bone marrow-derived cells, compound 1, 2.5, 5, 10 or 20 μg/ml for 1 hour, then 10 μg/ml peptidoglycan 24 hours, ELISA. On the procedure: In Vitro IL12/23p40 Production Assay:
Bone marrow derived cells (BMDCs) were obtained from the femur and tibia of female C57BL mice, cultured, and seeded at a concentration of 10^6 cells/ml 5-6 days post-culturing, as described hereinabove for the tyrosine phosphorylation assay.
The tested compound was then added to the cells for 1 hour at a concentration of 1, 2.5, 5, 10 or 20 μg/ml. The cells were activated for IL12/23p40 production by incubation for 24 hours with 10 μg/ml peptidoglycan (PGN). Cytokine production from the supernatant was measured by ELISA. Activated cells without the tested compound were used as the control.

The test system of data set [5] is mouse peritoneal macrophages. Briefly: In vitro toxicity assay. The data set is classed as cell-based. Here is the method: Thioglycollate-elicited mouse peritoneal macrophages were washed, counted and seeded (2×10^5 to 3×10^5 cells per well in 24-well plates) in triplicate wells in medium containing RPMI-1640, L-glutamine, 10% FBS and antibiotics (penicillin/streptomycin). After a recovery period of 24 hours, the tested compound (or controls) was added to the cell medium at doses of 2, 10, 20, 50, 100 or 150 μg/ml, keeping the added volume equal in all treatments by complementing the volume with solvent.
Following addition of the compounds, the cells were incubated for an additional 24 hours, after which the cells were washed, fixed with a solution of 10% methanol/10% acetic acid and stained with crystal violet (0.4% in 20% ethanol). Cell numbers were measured by determining optical density at 595 nm. Cells incubated with vehicle (PBS with 1% ethanol) were used as a control, to which cell numbers in treated samples were normalized.
Data are presented as mean±standard deviation. Statistical significance relative to vehicle-treated cells was calculated using a student's t-test, with p-values of less than 0.05 being considered as indicating statistical significance.

Data set [6] has as its system tyrosine phosphorylation in primary macrophages. Briefly: Tyrosine phosphorylation assay in primary macrophages (Western blot). The data set is classed as cell-based, mouse. On the procedure:
(§1) Tyrosine Phosphorylation Assay: Tyrosine phosphorylation in macrophages or bone marrow-derived cells (BMDCs) of mice was assayed. Mouse primary macrophages were isolated from the peritoneum of 7-8 week old C57BL/6 female mice following thioglycollate stimulation. […] Mouse primary bone marrow-derived cells were isolated by flushing bone marrow out of the femur and tibia of female SJL mice using cold RPMI-1640. […] Cells were then washed, resuspended in the same buffer and depleted of B and T cells on a Midi-Macs separation unit through a LD or LS column (Miltenyi Biotech). […] The medium was replaced every other day. […] Proteins with phosphorylated tyrosine were then observed by Western blot, using a monoclonal anti-phosphotyrosine antibody. Western blotting for ERK1/2 or α-tubulin was performed as a control for protein loading.

Data set [7] has as its system tyrosine phosphorylation in bone marrow-derived cells. Briefly: Tyrosine phosphorylation assay in bone marrow-derived cells (Western blot). The data set is classed as cell-based, mouse. Here is the method:
as §1

Data set [8] concerns ApoE KO mice. Briefly: In vivo atherosclerotic lesion assay, ApoE KO mice. The note with it: 1 mg/mouse (40 mg/kg) orally, 5 treatments every other day, sacrificed by the end of 8 weeks, aortic sinus. Here is the method:
(§2) In Vivo Atherosclerotic Lesion Assay:
Alternatively, 14-16-week old ApoE KO mouse were orally administered with 0.2 ml of PBS or PBS with an indicated amount of the tested compound, once a day, every other day, for 5 treatments, and sacrificed by the end of 8 weeks.
(§3) The quantification of atherosclerotic lesions was done by calculating the lesion size in the aortic sinus as previously described [Paigen et al., Quantitative assessment of atherosclerotic lesions in mice. Atherosclerosis 1987; 68:231-240] with a few modifications. Briefly, the heart and the aorta were removed from the animals, and the peripheral fat was cleaned carefully. The hearts were embedded in Optimal Cutting Temperature (OCT) gel and frozen. Aortic sinus lesion was determined from 3-8 Oil red O-stained serial sections (10 μm thick), throughout the aortic sinus (400 μm). The lesion area was calculated using a computer analyzing method (Image Pro Plus software [version 4.5.1.29], Medical Cybernetics Corporation).

Data set [9] relates to LDL-RD male mice. Briefly: In vivo atherosclerotic lesion assay, LDL-RD mice. To be noted: 1 mg/mouse (60 mg/kg) orally, 5 treatments every other day, western diet 5 weeks, aortic sinus. On the procedure: as §2
12-16-week old LDL-RD male mice were orally administered with 0.2 ml of PBS or PBS with an indicated amount of the tested compound, once a day, every other day, for 5 treatments. The mice were challenged with western diet for 5 weeks and then sacrificed.
as §3

[10] abbreviates: peritoneal macrophages, 24 hours, doses 2-150 μg/ml.

Entries after “also recorded” stand apart in the source; their conditions may differ.

In the case of `CCCCCCCCCCCCCCCCOCC(COP(=O)(O)OCCN)OCCCCC(=O)O` (stereo not shown) [CI-202, 1-Hexadecyl-2-(4-carboxy)butyl-glycero-3-phosphoethanolamine], the “decrease of peak arthritis clinical score relative to the control mice” value in data set [1] (0.4 mg/kg by gavage daily from day 22) turned out to be 42%. Besides, the “arthritis severity (arthritis clinical score)” value in data set [1] (0.4 mg/kg by gavage daily from day 22, followed until day 36) is “significantly decreased arthritis severity throughout the study period”. In addition, the “IL12/23 p40 mRNA expression” value in [2] was “inhibited IL12/23 p40 mRNA expression during the whole tested time period”. The “development of MOG-induced EAE (mean clinical score)” value in data set [3] is “delayed disease onset and reduced clinical manifestation of EAE”. The “production of IL12/23 p40” value in data set [4] is “inhibited production of IL12/23 p40 by bone marrow-derived cells in a dose-dependent manner”. Also, the “dose at which (significant) toxicity was detected” value in [5] (mouse, 24 h) is “above 50 μg/ml”. Further, the phosphotyrosine levels result in data set [6] (10 μg/ml, 10 minutes) is “induction of tyrosine phosphorylation”; in data set [6] (20 μg/ml, 10 minutes), “reduction in phosphotyrosine levels”.

Regarding `CCCCCCCCCCCCCCCCOC[C@H](COP(=O)([O-])OCC[N+](C)(C)C)OCCCCC(=O)O` [CI-201, 1-hexadecyl-2-(4-carboxy)butyl-sn-glycero-3-phosphocholine, reference compound], the “IL12/23 p40 mRNA expression” value in [2] was “inhibition by CI-202 was comparable to the inhibition by CI-201”. The phosphotyrosine levels result is reported as “reduction” in data set [6] (20 ng/ml); “caused an increase in phosphotyrosine levels” in data set [6] (10 μg/ml, 10 minutes); “caused a decrease in phosphotyrosine levels; also recorded: caused a reduction in phosphotyrosine levels” in [6] (20 μg/ml, 10 minutes).

As to `CCCCCCCCCCCCCCCCOCC(COP(=O)([O-])OCC[N+](C)(C)C)OCCCCCCC(=O)O` (stereo not shown) [CI-203, 1-Hexadecyl-2-(6-carboxy)hexanyl-glycero-3-phosphocholine], in data set [7] (1 μg/ml (1.7 μM)), the phosphotyrosine levels entry is “no apparent effect”. In addition, the “production of IL12/23 p40” value in [4] is reported as “inhibited production of IL12/23 p40 by bone marrow-derived cells in a dose-dependent manner”. For the same compound, in data set [5] (setting [10]), the “dose at which (significant) toxicity was detected” value amounted to 100 µg/mL.

For the compound `CCCCCCCCCCCCCCCCOCC(COP(=O)([O-])OCC[N+](C)(C)C)OCCCCC(OC)OC` (stereo not shown) [diMeAc, 1-hexadecyl-2-(5′,5′-dimethoxypentyl)-glycero-3-phosphocholine], the “decrease of atherosclerotic lesion area as compared to the control (PBS)” value in [8] was 23%.

For the compound `CCCCCCCCCCCCCCCCOC[C@H](COP(=O)([O-])OCC[N+](C)(C)C)OCCCCC(O)CO` (stereo partly shown) [di-OH, 1-Hexadecyl-2-(5,6-dihydroxy)hexanyl-glycero-3-phosphocholine], in data set [9], the “decrease of atherosclerotic lesion area as compared to the control (PBS)” value is listed as 25%. Also, the “dose at which (significant) toxicity was detected” value in data set [5] (setting [10]) was no less than 20 µg/mL.

Regarding `CCCCCCCCCCCCCCCCOCC(COP(=O)([O-])OCC[N+](C)(C)C)OCCCCCCC(=O)O` (racemic) [racemic CI-203, 1-hexadecyl-2-(6-carboxy)hexanyl-glycero-3-phosphocholine], the phosphotyrosine levels result in data set [7] (20 μg/ml (33 μM)) is “caused a reduction in phosphotyrosine levels”.

Source of the values: patent US9206206B2, “Oxidized lipid compounds and uses thereof” (Vascular Biogenics Ltd., priority 2008, dated 2015).
